From patent US20240269094A1, “Treatment of canine dermatitis and skin irritation” (priority 2023, published 2024)
Where two headings read alike, the source gives them in different places.

What was measured:
oral cavity = conditions: 100 ppm in 5% sucrose; scale of 0 to 9 units; Johnson, 2018; cited from earlier work
TRPM8 [1] = biological target: TRPM8 (Homo sapiens, UniProt Q7Z2W7); set-up: EC50; other: Johnson, 2.2/2.2; conditions: Ref. 5 (Johnson et al., 2018); cited from earlier work
tongue [2] = test: Oral cavity screen: 15 mg of crystals on the dorsal surface of the tongue; type: in vivo, human
Description: In this discovery, sensory activity in the oral cavity was the first screen. The goal was to identify candidates producing unusual sensations. Test agents, prepared as 15 mg of white crystals, were placed on the dorsal surface of the tongue. The chemical structures and identifying characteristics are in Table 1. […] Related cooling agents were not freezing cold, except for WS-23.

philtrum skin = test: Philtrum (skin) bioassay of cooling; type: in vivo, human; conditions: for Comments: quality of sensation on philtrum skin: 8% wt/vol; for Duration of cooling: 8% wt/vol on philtrum; for Duration-Skin: Wei, Table 6, see FIG. 6
Description: FIG. 5. The philtrum bioassay. Cooling agents, prepared as a or in solution are applied to the philtrum skin. Cooling intensity is rated on a scale of 0 to 3, with 0=no changes in sensation, 1=a slight feeling of coolness, cold or tingling, 2=a clearcut feeling of coolness of cold, and 3=a robust feeling of coolness of cold. The duration of cooling was recorded until two zeroes were measured 10 min apart.
TRPM8 EC50 Receptor Assay. […] A receptor assay is a standard tool and can be done quickly. For example, in a 384-plate assay, you can easily test 10 compounds and get dose-response data. For a chemical agonist, an in vitro TRPM8 assay generates an EC50 (median effective concentration). But the quantitative correlation between the EC50 on TRPM8 and cooling sensation was vague. That is, the science was “roughly” predictive, but there was considerable uncertainty for each agonist. […] Philtrum (Skin) Assay. For cooling sensations on the skin, it is necessary to test the substance on the skin. Wei proposed the use of the skin on the philtrum as a test site for cooling activity of chemicals (FIG. 5). The test substance is dissolved in a carrier, such as solvent, gel, or ointment and applied to the philtrum, a surface area of […]. The subject records sensations on the philtrum and environs as:
The subject is given a form to record observations and instructions to mark sensations on the philtrum and environs as: 0=no changes in sensation, 1=a slight feeling of coolness, cold, or tingling, 2=a clearcut feeling of coolness or cold, and 3=a robust feeling of coolness and cold.
The intervals for measurements are usually at 5, to 15 min after application, until two successive zeros are obtained. The philtrum application site is the midline groove above the upper lip border and vermilion. The gel is placed on the philtrum with a cotton-tipped applicator up to the nasolabial folds and sometimes, but not deliberately, on the lower nostrils (subnasale). Cold receptors densely innervate the philtrum skin (FIG. 5), second only to the surfaces of the eyeball and anogenitalia. The lips also have a high density of “cold spots.” Hensel et al. mapped the cold spots on the human face (cited in Dhaka et al., 2008). In animals such as the rat the mystacial pad (nose pad with vibrissae) is abundantly labeled with TRPM8-fibers. “Cold Points” linked to single-unit neuronal discharges can be measured in experimental animals. Wei has direct experience in such experiments (Poree et al., 1989).
Dip a cotton-tipped applicator (Puritan Cotton-tipped applicators, or Q-Tips) into a reservoir bottle containing the liquid or semi-liquid (gel) test substance. The composition adhering to the cotton (about 0.1 mL) is put on the skin. The philtrum site is shown in a cartoon. A subject can practice the method in front of a mirror with a high-intensity light source. Results for test on the philtrum are in Table 8 and FIG. 5. See data in FIG. 6. Cooling agents, prepared as an 8% wt./vol. gel, was tested topically on the philtrum skin assay. The duration of cooling was recorded (min on y-axis). The startling activity of FEMA 4557, cooling for ˜3 hr, was unexpected and surprising. FEMA 3784 is also known as Cool 10 or menthoxypropanediol. […]

TRPM8 [3] = biological target: T1, TRPM8 (Rattus norvegicus, UniProt Q8R455); set-up: EC50; other: Sherkheli, 196/1500; conditions: Ref. 4 (Sherkheli et al., 2010); cited from earlier work
T1 sequence (Q8R455 whole entry): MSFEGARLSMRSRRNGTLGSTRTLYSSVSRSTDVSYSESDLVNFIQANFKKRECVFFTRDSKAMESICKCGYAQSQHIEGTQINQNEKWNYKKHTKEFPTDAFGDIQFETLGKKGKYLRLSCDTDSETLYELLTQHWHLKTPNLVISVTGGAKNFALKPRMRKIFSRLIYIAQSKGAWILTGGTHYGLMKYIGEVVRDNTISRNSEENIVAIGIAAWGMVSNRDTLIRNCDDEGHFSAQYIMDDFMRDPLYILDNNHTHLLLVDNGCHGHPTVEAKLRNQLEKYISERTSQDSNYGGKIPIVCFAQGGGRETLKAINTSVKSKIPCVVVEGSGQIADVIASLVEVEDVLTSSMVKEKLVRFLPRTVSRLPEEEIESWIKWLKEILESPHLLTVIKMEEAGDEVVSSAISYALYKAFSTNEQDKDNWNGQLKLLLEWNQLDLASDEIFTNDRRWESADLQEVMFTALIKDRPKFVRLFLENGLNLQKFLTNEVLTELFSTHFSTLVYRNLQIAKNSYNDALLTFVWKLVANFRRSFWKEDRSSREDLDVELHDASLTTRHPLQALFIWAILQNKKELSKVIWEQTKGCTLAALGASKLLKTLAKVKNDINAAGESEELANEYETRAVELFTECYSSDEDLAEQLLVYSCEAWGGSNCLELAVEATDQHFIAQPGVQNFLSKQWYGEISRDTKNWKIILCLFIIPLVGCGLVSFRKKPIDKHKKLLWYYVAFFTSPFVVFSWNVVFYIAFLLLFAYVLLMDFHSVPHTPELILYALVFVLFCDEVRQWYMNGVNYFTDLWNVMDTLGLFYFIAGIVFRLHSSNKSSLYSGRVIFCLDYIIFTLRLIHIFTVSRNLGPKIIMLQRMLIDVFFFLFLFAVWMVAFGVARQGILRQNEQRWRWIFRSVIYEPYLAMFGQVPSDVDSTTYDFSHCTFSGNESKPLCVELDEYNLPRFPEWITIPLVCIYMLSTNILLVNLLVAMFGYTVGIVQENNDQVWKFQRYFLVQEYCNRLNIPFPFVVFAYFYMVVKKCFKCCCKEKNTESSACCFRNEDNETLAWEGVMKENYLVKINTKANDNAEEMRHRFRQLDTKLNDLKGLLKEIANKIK

TRPM8 [4] = biological target: T2, TRPM8 (Mus musculus, UniProt Q8R4D5); set-up: EC50; conditions: Ref. 3 (Bodding et al., 2007); cited from earlier work
T2 sequence (Q8R4D5 whole entry): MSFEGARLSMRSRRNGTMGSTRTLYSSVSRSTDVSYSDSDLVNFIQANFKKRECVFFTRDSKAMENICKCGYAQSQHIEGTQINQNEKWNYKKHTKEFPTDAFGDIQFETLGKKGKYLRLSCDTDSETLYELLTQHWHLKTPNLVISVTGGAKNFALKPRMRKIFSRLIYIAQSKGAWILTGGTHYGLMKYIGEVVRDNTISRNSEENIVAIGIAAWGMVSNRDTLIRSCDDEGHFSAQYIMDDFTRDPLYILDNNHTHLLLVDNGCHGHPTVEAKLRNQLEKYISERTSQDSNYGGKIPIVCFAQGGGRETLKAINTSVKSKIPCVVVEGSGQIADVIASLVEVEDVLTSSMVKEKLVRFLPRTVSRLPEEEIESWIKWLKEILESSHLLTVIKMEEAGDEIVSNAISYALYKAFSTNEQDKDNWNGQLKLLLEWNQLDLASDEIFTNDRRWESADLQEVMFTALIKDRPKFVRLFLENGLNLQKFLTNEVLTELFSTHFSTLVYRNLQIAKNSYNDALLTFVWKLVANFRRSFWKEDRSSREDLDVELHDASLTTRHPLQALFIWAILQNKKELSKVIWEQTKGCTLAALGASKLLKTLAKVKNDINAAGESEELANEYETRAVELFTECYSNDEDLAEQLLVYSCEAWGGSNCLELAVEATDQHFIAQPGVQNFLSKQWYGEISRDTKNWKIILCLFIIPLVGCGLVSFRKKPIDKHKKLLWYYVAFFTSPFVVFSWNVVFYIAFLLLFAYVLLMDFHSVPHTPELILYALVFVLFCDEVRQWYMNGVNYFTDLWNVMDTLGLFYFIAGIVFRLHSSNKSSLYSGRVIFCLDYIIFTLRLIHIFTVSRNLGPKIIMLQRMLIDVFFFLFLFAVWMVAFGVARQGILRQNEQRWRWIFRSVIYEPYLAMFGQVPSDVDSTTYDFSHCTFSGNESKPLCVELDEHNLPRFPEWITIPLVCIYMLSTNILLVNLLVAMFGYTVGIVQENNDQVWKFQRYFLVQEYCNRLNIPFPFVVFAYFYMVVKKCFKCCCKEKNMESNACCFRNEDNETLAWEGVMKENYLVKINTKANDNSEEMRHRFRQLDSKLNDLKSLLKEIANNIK

[5] = tested on: itch induced by various pruritogens; test: Itch induced by pruritogens on skin of healthy volunteers (FIG. 1); type: in vivo, human; conditions: gel on skin, five test pruritogens, itch self-rated 0 to 10 for 10 min
Description: FIG. 1. Topical Application of a cooling DIPA1-7 gel on skin of healthy volunteers inhibits itch induced by various pruritogens. n=30 subjects per trial. Results of Prof. Hyeone Kim, Sacred Heart Hospital, […] University, Seoul, Korea. Itch intensity was self-rated on a scale of 0 to 10 for 10 min (maximum score=100). […] Further details will be described in a scientific paper.

[6] = tested on: itch of urticaria and scalp itch; conditions: Kang et al., 2022; cited from earlier work
tongue [7] = test: Oral cavity screen: 15 mg of crystals on the dorsal surface of the tongue; type: in vivo, human; conditions: less than 2 mg on the tongue
TRPM8 [8] = biological target: T2, TRPM8; conditions: Ref. 2 (Behrendt et al., 2004); cited from earlier work
canine atopic dermatitis = conditions: cited from earlier work
[9] = tested on: canine dermatitis, scratching and licking; test: Topical treatment of canine skin irritation (case studies); type: in vivo, dog; conditions: Study 3, repeated bathing
Description: The Applicant gave the dog's owner an airless pump dispenser containing 8% wt/vol of FEMA 4557 dispersed in 4 mg/ml of carbapol 980, formulated with 1% ethanol and 1% menthol, and instructed him to apply the gel to the skin of the dog's belly and groin.
A twelve-year-old West Highland Terrier had periodic episodes of seasonal skin allergy. […] The owner of the dog, who had access to a pharmacy, applied nystatin ointment and a potent skin steroid cream containing […].
Next, a 20% wt/vol FEMA 4557 solution, dissolved in propylene glycol, was applied to the interdigital folds of the paws with a cotton-tipped applicator (FIG. 9).

TRPM8 [10] = biological target: T1, TRPM8; conditions: Ref. 1 column (McKemy et al., 2002); cited from earlier work
TRPA1 = biological target: T3, TRPA1 (Homo sapiens, UniProt O75762); test: Bioassay in cells transfected with TRPA1 (FIG. 4); type: cell-based
T3 construct: expressed in transfected cells
T3 sequence (O75762 whole entry, species assumed): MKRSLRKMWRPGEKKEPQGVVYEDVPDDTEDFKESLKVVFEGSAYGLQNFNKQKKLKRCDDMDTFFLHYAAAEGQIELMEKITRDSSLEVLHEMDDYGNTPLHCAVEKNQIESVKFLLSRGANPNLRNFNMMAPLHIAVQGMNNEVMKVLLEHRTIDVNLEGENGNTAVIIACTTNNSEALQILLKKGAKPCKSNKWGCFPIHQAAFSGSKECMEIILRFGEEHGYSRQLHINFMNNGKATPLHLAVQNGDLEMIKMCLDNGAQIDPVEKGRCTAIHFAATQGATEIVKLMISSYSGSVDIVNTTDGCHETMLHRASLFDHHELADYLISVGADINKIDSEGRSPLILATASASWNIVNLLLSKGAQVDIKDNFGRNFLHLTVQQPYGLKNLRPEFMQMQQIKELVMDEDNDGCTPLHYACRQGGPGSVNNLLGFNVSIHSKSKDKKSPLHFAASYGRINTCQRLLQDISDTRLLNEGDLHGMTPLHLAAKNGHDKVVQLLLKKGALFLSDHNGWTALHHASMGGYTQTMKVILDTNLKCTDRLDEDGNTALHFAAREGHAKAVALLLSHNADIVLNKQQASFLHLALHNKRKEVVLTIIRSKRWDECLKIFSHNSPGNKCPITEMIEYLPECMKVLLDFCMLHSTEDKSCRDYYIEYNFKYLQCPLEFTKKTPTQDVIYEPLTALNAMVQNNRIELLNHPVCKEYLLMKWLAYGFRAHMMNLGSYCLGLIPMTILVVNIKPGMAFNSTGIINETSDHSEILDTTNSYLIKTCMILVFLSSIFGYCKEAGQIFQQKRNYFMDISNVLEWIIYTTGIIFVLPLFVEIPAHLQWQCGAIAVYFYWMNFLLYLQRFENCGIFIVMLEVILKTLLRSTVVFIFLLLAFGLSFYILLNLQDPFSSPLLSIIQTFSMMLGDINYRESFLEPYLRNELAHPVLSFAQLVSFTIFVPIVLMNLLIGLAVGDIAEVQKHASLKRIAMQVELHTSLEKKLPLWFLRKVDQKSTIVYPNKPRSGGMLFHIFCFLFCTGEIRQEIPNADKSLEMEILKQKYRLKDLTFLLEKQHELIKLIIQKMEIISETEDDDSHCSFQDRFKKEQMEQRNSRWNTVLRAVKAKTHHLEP
Source text: FIG. 4 Bioassay of FEMA 4557 (labeled as BUDA on the graph) in TRPM8 and TRPA1. Data from the laboratory of Prof. Seok-Yong Lee at Duke University.
FIG. 4 Bioassay of FEMA 4557 (labeled as BUDA) in TRPM8 and TRPA1. Data of Prof. Seok-Yong Lee at Duke University.

[11] = Comparison of classes of cooling agents for applications on the canine skin (grades); set-up: species or system dog; key: A = excellent; B = average; C = poor; F = does not work; conditions: grade
Source text: Here are comments on grades assigned to specific classes of cooling agents (Table 3). […] The p-menthane carboxamides cover a wide range of compounds, but they are difficult for skin formulation to achieve a long duration of action. Menthol is short-acting and irritating, especially when it is near the ocular surface. The 1-dialkylphosphorylalkane known as DIPA1-7 (Cryosim-1, 1-dialkylphosphorylheptane) is an excellent skin agent, but costs are high for dermatological applications.

scratching excoriations = conditions: ointment; Biro et al., 2005; cited from earlier work

Question: Which results are given for COc1ccc(NC(=O)[C@@H]2C[C@H](C)CC[C@H]2C(C)C)cc1 [WS-12]?
Answer: Cooling Intensity Oral Cavity Scaled (oral cavity): 3; EC50 (TRPM8 [1]): 22.1 µM; Effects of 15 mg on tongue: duration (tongue [2]): ~20 min; Effects of 15 mg on tongue: sensation (tongue [2]): pleasant cooling in oral cavity; Comments: quality of sensation on philtrum skin (philtrum skin): pleasant cool sensations on skin; Duration of cooling (philtrum skin): 38 ± 4 min; Duration-Skin (philtrum skin): 0.4 h; EC50 (TRPM8 [3]): 12 µM; EC50 (TRPM8 [4]): 0.2 µM

Question: Which EC50 (TRPM8 [4]) does the source give for CCCCCCCP(=O)(C(C)CC)C(C)CC (stereo not shown) [WS-148] here?
Answer: 4.1 µM

Question: With CCCCCCCP(=O)(C(C)C)C(C)C [DIPA-1-7, 1-diisopropylphosphorylheptane] as the compound, how does the “inhibition of pruritogen-induced itch” value [5] read?
Answer: significantly inhibited itching

Question: What about the “itch in human subjects” value [6] of the same compound?
Answer: inhibited the itch of urticaria and scalp itch

Question: What about the “Effects of 15 mg on tongue: sensation” value (tongue [2]) of the same compound?
Answer: stinging, painful cold

Question: And the “sensation on the tongue” value (tongue [7])?
Answer: frigid, stinging, icy, and painful cold

Question: And the adverse skin sensations (philtrum skin; on skin, contrast to FEMA 4557)?
Answer: frigid cold and irritation

Question: Which “Effects of 15 mg on tongue: duration” value (tongue [2]) does the source give for CC(C)OC(=O)CNC(=O)[C@@H]1C[C@H](C)CC[C@H]1C(C)C [Ax-8, p-Menthane-Gly-OiPr] here?
Answer: ~27 min

Question: And the “Effects of 15 mg on tongue: sensation” value (tongue [2])?
Answer: pleasant cooling in oral cavity

Question: With CCNC(=O)[C@@H]1C[C@H](C)CC[C@H]1C(C)C [WS-3] as the compound, how does the “Cooling Intensity Oral Cavity Scaled” value (oral cavity) read?
Answer: 5.2

Question: What about the EC50 (TRPM8 [1]) of the same compound?
Answer: 5.9 µM

Question: And the “Effects of 15 mg on tongue: duration” value (tongue [2])?
Answer: ~8 min

Question: What about the “Effects of 15 mg on tongue: sensation” value (tongue [2]) of the same compound?
Answer: pleasant cooling in oral cavity

Question: What about the Duration-Skin (philtrum skin) of the same compound?
Answer: 0.3 h

Question: And the EC50 (TRPM8 [3])?
Answer: 210 µM

Question: What about the EC50 (TRPM8 [8]) of the same compound?
Answer: 3.7 µM

Question: Which “onset of anti-scratching effects” value (canine atopic dermatitis; oral tablet once or twice a day) does the source give for CNS(=O)(=O)C[C@H]1CC[C@H](N(C)c2ncnc3[nH]ccc23)CC1 [oclacitinib] here?
Answer: as early as four hours after dosing

Question: What about the Onset (canine atopic dermatitis; oral tablet) of the same compound?
Answer: 15 min, hours

Question: Which “effect of antifungal shampoo on skin irritation” value [9] does the source give for CC(=O)N1CCN(c2ccc(OCC3COC(Cn4ccnc4)(c4ccc(Cl)cc4Cl)O3)cc2)CC1 (stereo not shown) [ketoconazole] here?
Answer: did not make any difference

Question: With CC(C)[C@@H]1CC[C@@H](C)C[C@H]1OCC(O)CO (stereo partly shown) [Cool 10, menthoxypropanediol] as the compound, how does the EC50 (TRPM8 [8]) read?
Answer: 6 µM

Question: For CC(C)[C@@H]1CC[C@@H](C)C[C@H]1O [l-menthol], which “Cooling Intensity Oral Cavity Scaled” value (oral cavity) is on record?
Answer: 5

Question: And the Duration-Skin (philtrum skin)?
Answer: 0.3 h

Question: What about the EC50 (TRPM8 [3]) of the same compound?
Answer: 196 µM

Question: And the EC50 (TRPM8 [4])?
Answer: 10.4 µM

Question: What about the EC50 (TRPM8 [8]) of the same compound?
Answer: 4.1 µM

Question: And the EC50 (TRPM8 [10])?
Answer: 67 µM

Question: For C=CCN=C=S [AITC, allyl isothiocyanate], which “activity on TRPA1” value (TRPA1) is on record?
Answer: active

Question: Which “Cooling Intensity Oral Cavity Scaled” value (oral cavity) does the source give for CCOC(=O)CNC(=O)[C@@H]1C[C@H](C)CC[C@H]1C(C)C [WS-5] here?
Answer: 6

Question: What about the EC50 (TRPM8 [1]) of the same compound?
Answer: 0.5 µM

Question: What about the “Effects of 15 mg on tongue: duration” value (tongue [2]) of the same compound?
Answer: ~12 min

Question: And the “Effects of 15 mg on tongue: sensation” value (tongue [2])?
Answer: pleasant cooling in oral cavity

Question: And the “Comments: quality of sensation on philtrum skin” value (philtrum skin)?
Answer: pleasant cool sensations of skin

Question: And the Duration of cooling (philtrum skin)?
Answer: 51 ± 4 min

Question: And the Duration-Skin (philtrum skin)?
Answer: 0.5 h

Question: What about the EC50 (TRPM8 [3]) of the same compound?
Answer: 26 µM

Question: For Clc1ccc(COC(Cn2ccnc2)c2ccc(Cl)cc2Cl)c(Cl)c1 (stereo not shown) [miconazole], which “effect of antifungal shampoo on skin irritation” value [9] is on record?
Answer: did not make any difference

Question: For O=C1NC(c2cccc([N+](=O)[O-])c2)=CCN1c1ccccc1O [icilin], which “Absence of Irritancy” value [11] is on record?
Answer: A

Question: And the Potency [11]?
Answer: A

Question: And the “Rapid Onset” value [11]?
Answer: B

Question: What about the “Safety in Use” value [11] of the same compound?
Answer: A

Question: What about the “Sufficient Duration” value [11] of the same compound?
Answer: A

Question: And the EC50 (TRPM8 [3])?
Answer: 7 µM

Question: And the scratching excoriations (scratching excoriations)?
Answer: prevented scratching excoriations

Question: And the EC50 (TRPM8 [4])?
Answer: 1.4 µM

Question: And the EC50 (TRPM8 [10])?
Answer: 0.36 µM

Question: Which EC50 (TRPM8 [3]) does the source give for CCOC(=O)[C@@H](C)NC(=O)[C@@H]1C[C@H](C)CC[C@H]1C(C)C [CPS-369] here?
Answer: 65 µM

Question: And the EC50 (TRPM8 [4])?
Answer: 3.6 µM
